We go through 7 compounds from US20110136245A1, “SYNERGISTIC INTERACTIONS OF PHENOLIC COMPOUNDS FOUND IN FOOD” (priority 2009, published 2011).

For data set [1] the following is noted: marketed products and foods listed for comparison; cited from earlier work.
The conditions of data set [2]: marketed products and foods listed for comparison; cited from earlier work. The source holds these as a separate data set.
A short description of data set [3]: ORAC assay, phenolic compounds found in strawberries. In kind it is biochemical. Particulars: strawberry combinations and individual antioxidants; values per gram. The text has this:
FIG. 5 provides the structures. […] Solubility was checked after thawing and dilution. […] All possible combinations of two compounds were mixed on an equal volume basis after being prepared at the concentrations found in Table 4 to ensure relative concentrations were maintained. Mixtures were then further diluted to match the lowest individual compound molarity to fit the Trolox standard curve. […] The same pattern was repeated for combinations of four: the top three synergistic combinations of three were combined with all possible fourth compounds. No statistically significant increases in antioxidant capacity were found for combinations of four. […] Combinations were prepared on the same day of their ORAC assay. ORAC assays were carried out according to Dávalos et al. […] Parameters of the assay were as follows: reader temperature: 37 degrees C., cycle number, 120; cycle time, 60 seconds; shaking mode, 3 seconds of orbital shaking before each cycle. A fluorescence filter with an excitation wavelength of 485/20 nm and an emission wavelength of 520/20 nm was used. Samples were prepared in 96-well plates in a mirror fashion, based on a planned layout. Each mirrored duplicate was averaged and counted as one data point. All samples were measured in quadruplicate (eight wells total) to obtain necessary statistical power. […] The data were analyzed using a Microsoft Excel 2007 (Microsoft, Redmond, Wash., USA) spreadsheet to determine area under the curve and to convert the data to Trolox equivalents based on the Trolox standard curve. […] Likewise, for combinations of three and four, the difference was calculated by subtracting the average of the individual three or four compounds from the combination. […] Difference=(combination abc)−(combination ab+individual c) (7) Difference=(combination abcd)−(combination abc+d) (8)

Data set [4] is described as follows: Solubility on stock solution preparation. Particulars: weighable concentrations, stock solution in methanol / NaOH.
Description: Because of the high water content of oranges, no density adjustment was made. Compounds were prepared assuming 100 g was 100 mL in volume. All compounds except hesperidin and luteolin were weighed (10× to 1000× of Table 1 concentration to facilitate weighing) and dissolved in methanol. […] The phenolic stock solutions were stored in 1 mL aliquots at −20.C. Phenolics were brought to RT, vortexed, and diluted in 7:3 (v:v) acetone:water to match the fruit concentrations in Table 1. To fit the Trolox standard curve (see below for assay description), compounds were further diluted in 7:3 (v:v) acetone:water to the following molar concentrations prior to transfer to the 96-well plate: chlorogenic acid, 10.7 μM; hesperidin, 10.2 μM; luteolin, 2.45 μM; myricetin, 0.786 μM; naringenin, 2.61 μM; pcoumaric acid, 1.95 μM; and quercetin, 6.62 μM. Solubility was checked after thawing and dilution. All work involving phenolic compounds, fluorescein, and Trolox was performed in dark conditions to minimize degradation.
It was assumed that 1 g fruit puree was 1 ml in volume for sample preparation, as a density adjustment would not change relative concentrations that would be tested. All compounds except ellagic acid were weighed then dissolved in methanol. […] The phenolic stock solutions were stored in 1 mL aliquots at −20° C. […]
The conditions of data set [5]: published values (Jorgensen & Skibsted 1998; Foley et al. 1999); cited from earlier work.

`O=C1O[C@H]([C@@H](O)CO)C(O)=C1O` [ascorbic acid (vitamin C), ascorbic acid]: the “ORAC Value (μmol Trolox Equivalents/g of mixture)” value in data set [1] was 2,000 μmol Trolox Equivalents/g of mixture. Moreover, in data set [2], the “ORAC Value” was 2,000 mol Trolox Equivalents/g of mixture. As for `O=c1oc2c(O)c(O)cc3c(=O)oc4c(O)c(O)cc1c4c23` [ellagic acid], the ORAC Value (µmol Trolox equivalents/g) in data set [3] turned out to be 7820 µmol Trolox equivalents/g. On to `COc1ccc([C@@H]2CC(=O)c3c(O)cc(O[C@@H]4O[C@H](CO[C@@H]5O[C@@H](C)[C@H](O)[C@@H](O)[C@H]5O)[C@@H](O)[C@H](O)[C@H]4O)cc3O2)cc1O` [hesperidin], for which the solubility result in data set [4] was “only fully soluble at weighable concentrations in a basic solution”.

As for `O=c1c(O)c(-c2ccc(O)cc2)oc2cc(O)cc(O)c12` [kaempferol], the one-electron reduction potential in data set [5] was 0.39 V. `O=C(O)/C=C/c1ccc(O)cc1` [p-coumaric acid]: the ORAC Value (µmol Trolox equivalents/g) in data set [3] was determined as 20500 µmol Trolox equivalents/g. In addition, the one-electron reduction potential in data set [5] is recorded as 0.59 V.

Regarding `O=c1c(O[C@@H]2O[C@H](CO)[C@@H](O)[C@H](O)[C@H]2O)c(-c2ccc(O)c(O)c2)oc2cc(O)cc(O)c12` [quercetin-3-glucoside], the ORAC Value (µmol Trolox equivalents/g) in data set [3] stood at 20300 µmol Trolox equivalents/g. On to `O=c1c(O)c(-c2ccc(O)c(O)c2)oc2cc(O)cc(O)c12` [quercetin], for which the one-electron reduction potential in data set [5] is recorded as 0.29 V.
